From article PMC1458349, “Evaluation of high-dose daptomycin for therapy of experimental Staphylococcus aureus foreign body infection” (BMC Infectious Diseases, 2006)
Converted amounts (≈) assume the structure as drawn. “And” between values parts separate entries of the source, which are not always exact repeats. Equal entries are not always repeated. Where two headings read alike, the source gives them in different places.

How the values were obtained:
[1] = system: methicillin-susceptible S. aureus (MSSA) strain I20; assay: microbe, parasite or virus in culture; type: cell-based, Staphylococcus aureus
Description: To screen for the possible carryover effects of each antibiotic during the MBC determinations, 0.1-mL portions were taken from all tubes with no visible growth. These were subcultured, either undiluted or diluted 10-fold in saline, on Mueller-Hinton agar (MHA) for 36 h at 37°C. The MBC was defined as the lowest concentration that killed 99.9% of the original inoculum. Each MIC and MBC determination was performed three times and the modal values are presented. In additional control experiments, MICs and MBCs were performed in CAMHB supplemented with 50% TCF.

[2] = system: methicillin-susceptible S. aureus (MSSA) strain I20; assay: MIC, standard tube macrodilution (CLSI); type: cell-based; conditions: Staphylococcus aureus
Description: The methicillin-susceptible S. aureus (MSSA) strain I20 is a previously described clinical isolate from catheter-related sepsis, which is highly virulent in the rat model of chronic S. aureus tissue cage infection. Strain I20 is uniformly susceptible to all antibiotics except penicillin.
The MICs of oxacillin and vancomycin for strain I20 were determined in cation-adjusted Mueller-Hinton broth (CAMHB) containing 20-25 mg/L Ca^2+ and 10-12.5 mg/L Mg^2+ by the standard tube macrodilution method with an average inoculum of 10^6 CFU/mL as described by the Clinical Laboratory Standards Institute (CLSI). For daptomycin MIC, CAMHB was supplemented with additional calcium to a physiological concentration of 50 mg/L Ca^2+ (CSMHB).
Each MIC and MBC determination was performed three times and the modal values are presented. In additional control experiments, MICs and MBCs were performed in CAMHB supplemented with 50% TCF.

MSSA strain I20 [3] = assay: Killing kinetic (time-kill) studies; type: cell-based, Staphylococcus aureus; conditions: 8 mg/L in CAMHB; 10^6 CFU exponential-phase; 37°C; one representative of three experiments
Description: 0.1-mL portions containing 10^6 CFU of strain I20 (obtained from exponential-phase cultures) were added to sterile plastic tubes containing 1 mL of either CSMHB containing 8 mg/L of daptomycin, or CAMHB containing 8 mg/L of oxacillin or vancomycin, in a shaking waterbath at 37°C. The number of viable organisms was determined by subculturing 50 μL of 10-fold diluted portions on MHA after 0, 2, 4, 6, and 24 h of incubation. Colonies were enumerated with a laser colony counter (Spiral System) after 48 h of incubation at 37°C. The detection limit was 2 log10 CFU/mL. […] Each killing kinetic experiment was repeated three times and results from one representative experiment are presented.

MSSA strain I20 [4] = type: in vivo, Staphylococcus aureus; conditions: Wistar rats, i.p. twice daily for 7 days: daptomycin 30 mg/kg, oxacillin 200 mg/kg, vancomycin 50 mg/kg, mean ± SEM, n = 18-19 cages; for average counts in tissue cages at the end of the 7-day therapy: TCF cultured 12 h after last dose; for reduction in bacterial counts in TCF (delta log10 CFU/mL, day 1 to day 8): P < 0.001 vs untreated
Description: All animal studies of the daptomycin no 1-study were performed in 1991. These animal studies followed ethical guidelines of that time period and received legal approval from the Veterinary Office of the State of Geneva. Subcutaneous surgical implantation of four tissue cages per animal was performed as described by using Wistar rats that were anaesthetised with an intraperitoneal (i.p.) injection of a mixture of ketamine (90 mg/kg) and xylazine (5 mg/kg). At 3 weeks post-implantation, TCF was aspirated and checked for sterility. To establish a chronic S. aureus infection, tissue cages were inoculated with 0.1 mL of saline containing 0.2 × 10^6 to 2 × 10^6 CFU of a washed overnight culture of strain I20 in CAMHB. Three weeks later, all tissue cages containing more than 10^5 CFU/mL of TCF were included in the therapeutic protocols.
Rats infected with strain I20 were randomised to receive (by the i.p. route for 7 days) twice-daily regimens of either daptomycin (30 mg/kg), oxacillin (200 mg/kg), or vancomycin (50 mg/kg), or were left untreated. At 12 h after the last injection of antibiotic, quantitative cultures of 10-fold serially diluted TCF were performed on MHA. To optimise the yield of viable bacteria, TCF were briefly sonicated (60 W, 1 min) to disrupt the biofilm and phagocytic cells before the serial dilutions and plating. Plates were incubated for 24-48 h at 37°C. The detection limit was one colony equivalent to 2 log10 CFU/mL of TCF. The differences in CFU counts between day 1 and day 8 were determined and expressed as delta log10CFU/mL. For each treatment group, results were expressed as means ± standard errors of the means (SEM). Comparison of bacterial counts in the different groups was performed by ANOVA and Newman-Keuls multiple comparisons procedures using Microsoft Excel® 2000 software. Data were considered significant when P was < 0.05 by using two-tailed significance levels.

[5] = rats, cited from earlier work
[6] = Screening of side effects: serum liver, kidney and muscle markers; type: in vivo, rat
Description: To check for potential side effects of the twice-daily 30 mg/kg daptomycin regimen, serum samples of the daptomycin-treated and control rats were collected at day 8 for determination of liver, kidney, and muscle enzyme markers, namely aspartate aminotransferase (ASAT) and alanine aminotransferase (ALAT) activities, serum creatinine, and creatine kinase, respectively, using standard analytical methods.

in vivo [7] = conditions: Wistar, rat, tissue cage fluid (TCF), ip, 30 mg/kg
Description: (§1) For each time point, the mean (± SEM) daptomycin levels in plasma from four animals was determined.

[8] = rat, in vivo, cited from earlier work
in vivo [9] = conditions: rat, plasma, ip, 30 mg/kg
Description: as §1

[10] = Pharmacokinetic levels in rat plasma; conditions: 30 mg/kg i.p. twice daily, day 4
Description: as §1

[11] = rats, 30 mg/kg once daily, cited from earlier work
[12] = Pharmacokinetic levels in rat tissue cage fluid (TCF)
Description: as §1

[13] = Staphylococcus aureus, MSSA, CAMHB, lowest concentration killing 99.9% of inoculum, subculture on MHA 36 h 37°C, modal value of 3, read-out: MBC
[14] = twice-daily oxacillin 200 mg/kg or vancomycin 50 mg/kg

CN[C@H](CC(C)C)C(=O)N[C@H]1C(=O)N[C@@H](CC(N)=O)C(=O)N[C@H]2C(=O)N[C@H]3C(=O)N[C@H](C(=O)N[C@H](C(=O)O)c4cc(O)cc(O)c4-c4cc3ccc4O)[C@H](O)c3ccc(c(Cl)c3)Oc3cc2cc(c3O[C@@H]2O[C@H](CO)[C@@H](O)[C@H](O)[C@H]2O[C@H]2C[C@](C)(N)[C@H](O)[C@H](C)O2)Oc2ccc(cc2Cl)[C@H]1O [vancomycin]
MBC [1, 13]: 2 µg/mL (≈ 1.38 µM) | MIC [2]: 1 µg/mL (≈ 0.69 µM) | time after which reduction in viable counts exceeded 3 log10 CFU/mL (MSSA strain I20 [3]): 4 h | average counts in tissue cages at the end of the 7-day therapy (MSSA strain I20 [4]): 5.49 ± 0.21 log10 CFU/mL | reduction in bacterial counts in TCF (delta log10 CFU/mL, day 1 to day 8) (MSSA strain I20 [4]): 0.96 log10 CFU/mL and 0.96 ± 0.24 log10 CFU/mL | peak TCF level [5, 14]: 12 mg/L | trough TCF level [5, 14]: 2 mg/L

CCCCCCCCCC(=O)N[C@@H](Cc1c[nH]c2ccccc12)C(=O)N[C@H](CC(N)=O)C(=O)N[C@@H](CC(=O)O)C(=O)N[C@@H]1C(=O)NCC(=O)N[C@@H](CCCN)C(=O)N[C@@H](CC(=O)O)C(=O)N[C@H](C)C(=O)N[C@@H](CC(=O)O)C(=O)NCC(=O)N[C@H](CO)C(=O)N[C@@H]([C@H](C)CC(=O)O)C(=O)N[C@@H](CC(=O)c2ccccc2N)C(=O)O[C@@H]1C [daptomycin]
exterior signs of toxicity ([6]; rats receiving twice-daily doses (30 mg/kg)): No exterior sign of toxicity | liver toxicity (overall assessment) ([6]; rats treated with high-dose daptomycin (30 mg/kg twice daily, 7 days)): only mild liver toxicity | ALAT (alanine aminotransferase) activity in serum ([6]; rats, 30 mg/kg i.p. twice daily for 7 days, serum at day 8, n = 5, control 41 ± 11): 46 ± 9 IU/L | serum creatinine ([6]; rats, 30 mg/kg i.p. twice daily for 7 days, serum at day 8, n = 5, control 50 ± 5): 53 ± 5 μM/L | ASAT (aspartate aminotransferase) activity in serum ([6]; rats, 30 mg/kg i.p. twice daily for 7 days, serum at day 8, n = 5, control 146 ± 36): 216 ± 24 IU/L | creatine kinase in serum ([6]; rats, 30 mg/kg i.p. twice daily for 7 days, serum at day 8, n = 5, control 1349 ± 820): 1393 ± 886 IU/L | level at 4 day (in vivo [7]): 21000 ng/mL | MBC ([1]; methicillin-susceptible strain I20, 36 h): 1 µg/mL (≈ 0.617 µM) | plasma AUC0-24h ([8]; 25 mg/kg): 278 µg·h/mL | plasma AUC0-24h ([8]; 40 mg/kg): 605 µg·h/mL | level at 12 h (in vivo [9]): 9100 ng/mL | plasma AUC0-24h ([10]; rats, AUC0-12 by linear trapezoidal rule multiplied by two): 1667 µg·h/mL | mean peak plasma level ([10]; uninfected rats, at 1 h, microbiological assay, mean of four animals): 173 mg/L | plasma AUC0-24h [11]: 558 µg·h/mL | peak plasma level ([11]; day 4, HPLC): 141 mg/L | trough plasma level ([11]; day 4, HPLC): 0 mg/L | plasma level at 12 h ([11]; day 4): 1000 ng/mL | TCF AUC0-24h ([12]; rats, 30 mg/kg i.p. twice daily, day 4, AUC0-12 by linear trapezoidal rule multiplied by two): 1073 µg·h/mL | TCF AUC0-24h as percentage of plasma AUC0-24h ([12]; rats, 30 mg/kg twice-daily regimen (printed as daptomycin no 2-study)): 64% | mean peak level in TCF ([12]; uninfected rats, 30 mg/kg i.p. twice daily, day 4, microbiological assay, mean of six animals): 66 mg/L | TCF AUC0-24h as percentage of plasma AUC0-24h ([5]; 30 mg/kg daily regimen (printed as daptomycin no 1-study)): 35% | TCF AUC0-24h ([5]; 30 mg/kg once daily): 196 µg·h/mL | TCF level at 12 h (intermediate value) ([5]; 30 mg/kg once daily): 10.0 mg/L | mean peak level in TCF ([5]; 30 mg/kg once daily): 11.8 mg/L | mean trough level in TCF ([5]; 30 mg/kg once daily): 3.4 mg/L

Cc1onc(-c2ccccc2)c1C(=O)N[C@@H]1C(=O)N2[C@@H]1SC(C)(C)[C@@H]2C(=O)O [oxacillin]
MBC [1, 13]: 1 µg/mL (≈ 2.49 µM) | MIC ([2]; CAMHB (20-25 mg/L Ca2+, 10-12.5 mg/L Mg2+), tube macrodilution, inoculum 10^6 CFU/mL, modal value of 3 determinations, read-out: MIC): 0.5 µg/mL (≈ 1.25 µM) | time after which reduction in viable counts exceeded 3 log10 CFU/mL (MSSA strain I20 [3]): 4 h | average counts in tissue cages at the end of the 7-day therapy (MSSA strain I20 [4]): 5.90 ± 0.25 log10 CFU/mL | reduction in bacterial counts in TCF (delta log10 CFU/mL, day 1 to day 8) (MSSA strain I20 [4]): 0.92 log10 CFU/mL and 0.92 ± 0.21 log10 CFU/mL | trough TCF level [5, 14]: 5.7 mg/L
